In article PMC4585333, “Novel Regulator of Acylated Ghrelin, CF801, Reduces Weight Gain, Rebound Feeding after a Fast, and Adiposity in Mice” (Frontiers in Endocrinology, 2015):
“Also recorded” adds a separate entry of the source.

What was measured:
[1] = EchoMRI carcass body composition; assay type: in vivo, male C57BL/6J mice
Protocol: (§1) A second cohort of mice (n = 30) was acclimated to the laboratory conditions for 1 week prior to the onset of the experiment. Mice were housed individually and their body weight and food intake was recorded daily for a baseline period of 10 days. Given that ghrelin augments the intake of preferred diets ([28]), all mice received ad libitum access to a high-fat diet (60% of calories coming from fat), in addition to regular chow, to determine if CF801 altered dietary preference. Both chow and high-fat diet pellets were provided daily to mice ad libitum in pre-weighed amounts. Mice were then assigned to four different groups: non-injected control (NIC; n = 7), vehicle (0.9% saline) (VEH; n = 7), low-dose CF801 (11 μmol⋅kg^−1 – LD; n = 8) and high-dose CF801 (22 μmol⋅kg^−1 – HD; n = 8). Each day at 09:00 hours, mice were weighed and their food intake (both chow and high-fat diet) was recorded. After this, mice received an intraperitoneal injection of either CF801 or saline (except for the non-injected controls). Following the 13-day treatment period, half the animals in each group were sacrificed, while the remaining mice were allowed to recover from treatment. […] At this point, the remaining mice were sacrificed. Carcasses from all animals were frozen and stored at −80°C until they were scanned for body composition analyses. Immediately prior to analysis, all carcasses were thawed to room temperature and weighed in order to obtain measures relative to total carcass mass. EchoMRI carcass analyses were performed at Health Canada, Nutrition Research Division facilities using the EchoMRI-1100 (System ID EF-020) scanner. Each carcass was analyzed separately and measurements of total fat mass, total lean mass, and total water weight were obtained for each mouse.
Given these changes in metabolic efficiency as well as the decrease in RER observed in the calorimetry experiment, we hypothesized that CF801 treatment would result in less accumulation of fat. To determine if this was the case, we conducted EchoMRI analyses on every animal post-mortem to identify differences in body composition as a function between groups. […] Furthermore, there was a significant treatment effect on the fat mass:total mass ratio following the recovery period [F(1,15) = 9.245, p < 0.05; partial eta^2 = 0.716].

Body weight gain = assay type: in vivo, male C57BL/6J mice; conditions: 13 days
Protocol: (§2) In general, male C57BL/6J mice (The Jackson Laboratory, Bar Harbor, ME, USA) weighing 20–25 g were used as experimental subjects. Throughout the duration of the studies, mice were housed under standard laboratory conditions and received ad libitum access to standard laboratory mouse chow and tap water. Lights in the facility were set to go on and off at 12 h intervals with the lights going on at 7:00 a.m. In some experiments, mice also had ad libitum access to a high-fat diet containing 60% caloric content from fat (TD 06414; Harlan Teklad, Indianapolis, IN, USA) in addition to regular chow to measure dietary preferences. All procedures were approved by the Carleton University Animal Care Committee and followed the guidelines of the Canadian Council on Animal Care.
A second cohort of mice (n = 30) was acclimated to the laboratory conditions for 1 week prior to the onset of the experiment. Mice were housed individually and their body weight and food intake was recorded daily for a baseline period of 10 days. Given that ghrelin augments the intake of preferred diets ([28]), all mice received ad libitum access to a high-fat diet (60% of calories coming from fat), in addition to regular chow, to determine if CF801 altered dietary preference. Both chow and high-fat diet pellets were provided daily to mice ad libitum in pre-weighed amounts. Mice were then assigned to four different groups: non-injected control (NIC; n = 7), vehicle (0.9% saline) (VEH; n = 7), low-dose CF801 (11 μmol⋅kg^−1 – LD; n = 8) and high-dose CF801 (22 μmol⋅kg^−1 – HD; n = 8). Each day at 09:00 hours, mice were weighed and their food intake (both chow and high-fat diet) was recorded. After this, mice received an intraperitoneal injection of either CF801 or saline (except for the non-injected controls). Following the 13-day treatment period, half the animals in each group were sacrificed, while the remaining mice were allowed to recover from treatment. […] Each carcass was analyzed separately and measurements of total fat mass, total lean mass, and total water weight were obtained for each mouse.

[2] = Food intake and dietary preference (chow and high-fat diet); assay type: in vivo, male C57BL/6J mice
Protocol: as §2, §1

[3] = tested on: stomach-derived ghrelinoma (SG-1) cells; assay: Cell-based ghrelin secretion assay (acyl ghrelin in medium, ELISA)
Protocol: Ghrelin secretion studies were performed in stomach-derived ghrelinoma (SG-1) cells, cultured as described previously ([61], [62]). Cells were plated at a density of 5 × 10^4 cells/mL/well on to 24-well plates pre-coated with poly-D-lysine (day 0). On day 2, the cells were treated with the indicated concentrations of test compound CF801, 24 h ahead of the test period and with 50 μM sodium octanoate–bovine serum albumin (BSA), 16 h ahead of the test period. On day 3, the medium was aspirated and the cells were treated with the same concentrations of CF801 in 500 μL serum-free DMEM (Life Technologies, Grand Island, NY, USA) supplemented with 5 mM glucose and 50 μM sodium octanoate–BSA. After a 6-h incubation, the medium was collected, placed on ice, and immediately centrifuged at 800 × g for 5 min. Hydrochloric acid was added to the supernatant to achieve a final concentration of 0.1 N (for stabilization of acyl ghrelin) and stored at −80°C until analysis. Assay for acyl ghrelin and total were performed using commercial ELISA kits (EMD Millipore Corporation, Billerica, MA, USA) according to the manufacturer’s instructions and read in a PowerWave XS Microplate spectrophotometer (BioTek Instruments, Inc., Winooski, VT, USA).
SG-1 cells are derived from stomach ghrelinomas induced by expression of the SV40 large T-antigen under the preproghrelin promoter. These cells retain many of the features of ghrelin cells within primary cultures of gastric mucosal cells from mice ([61]). They also show elevated expression of both preproghrelin and GOAT mRNA with high levels of acylated ghrelin synthesis and secretion ([61]). In order to test CF801’s ability to reduce acyl ghrelin secretion, we performed an in vitro cell-based assay using an SG-1 cell line as previously described ([61], [62]).
Figure 1 CF801 inhibits acyl ghrelin secretion from SG-1 cells following 24 h of incubation. […] All values are expressed as mean ± SEM. *p < 0.05, ***p < 0.001 significant difference in acyl ghrelin concentrations with CF801 treatment when compared to untreated control (n = 6 wells).

GSAFLSPEHQRK KRRQRRR-NH2 [CF801]
fat mass, low dose, after recovery ([1]; 11 μmol⋅kg^−1 i.p., 2 weeks after last treatment, vs VEH and NIC, p < 0.05): lower fat mass than mice in the VEH and NIC
fat mass:lean mass ratio, low dose vs NIC ([1]; 11 μmol⋅kg^−1 i.p., following recovery period, p < 0.05): significantly lower fat mass:lean mass ratio
fat mass:lean mass ratio, low dose vs VEH ([1]; 11 μmol⋅kg^−1 i.p., following recovery period, p = 0.058): tended to show a reduction in fat mass:lean mass ratio
fat mass:total mass ratio, low dose vs NIC and VEH ([1]; 11 μmol⋅kg^−1 i.p., following recovery period, p's < 0.05, overall F(1,15) = 9.245, partial eta^2 = 0.716): significantly lower fat mass:total mass ratios
fat mass, low dose, after treatment period ([1]; 11 μmol⋅kg^−1 i.p., vs VEH, end of treatment, p > 0.05): lower fat mass compared to VEH-treated animals, but this was not statistically significant
total fat mass, high dose, after recovery ([1]; 22 μmol⋅kg^−1 i.p., 2 weeks after treatment terminated, F(1,15) = 15.18, p < 0.05, partial eta^2 = 0.805): this decrease was more evident
fat mass:lean mass ratio, high dose vs NIC and VEH ([1]; 22 μmol⋅kg^−1 i.p., following recovery period, p < 0.05, overall F(1,15) = 7.735, partial eta^2 = 0.678): significantly lower fat mass:lean mass ratio
fat mass:total mass ratio, high dose vs NIC and VEH ([1]; 22 μmol⋅kg^−1 i.p., following recovery period, p's < 0.05, overall F(1,15) = 9.245, partial eta^2 = 0.716): significantly lower fat mass:total mass ratios
total fat mass, high dose, after treatment period ([1]; 22 μmol⋅kg^−1 i.p., vs VEH, right after 13-day treatment, F(1,14) = 3.54, p > 0.05 as printed, partial eta^2 = 0.515): significantly lower
fat mass:lean mass ratio, high dose vs low dose ([1]; 22 vs 11 μmol⋅kg^−1, following recovery period, p > 0.05): no different than animals treated with LD CF801
lean body mass ([1]; between groups, p > 0.05): no differences between the groups
water mass ([1]; between groups, p > 0.05): no differences between the groups
weight gain, low dose vs NIC and VEH (Body weight gain; 11 μmol⋅kg^−1 i.p. daily, not statistically significant): tended to have lower weight gain than control NIC (p = 0.092) and VEH-treated mice (p = 0.065)
weight gain, high dose (Body weight gain; 22 μmol⋅kg^−1 i.p. daily, vs saline or non-injected, F(3,29) = 3.098, p < 0.05, partial eta^2 = 0.271): decrease in weight gain
weight gain, low dose vs high dose (Body weight gain; 11 vs 22 μmol⋅kg^−1 i.p. daily, p > 0.05): no differences in weight gain
high-fat diet intake, low dose vs NIC and VEH ([2]; 11 μmol⋅kg^−1 i.p. daily, 13 days, p's < 0.05): significantly less high-fat diet
regular chow consumption, high dose ([2]; 22 μmol⋅kg^−1 i.p. daily, 13 days, vs every other group, F(3,28) = 5.305, p < 0.05, partial eta^2 = 0.41): significantly more regular chow
high-fat diet intake, high dose vs NIC and VEH ([2]; 22 μmol⋅kg^−1 i.p. daily, 13 days, p's < 0.05): significantly less high-fat diet
caloric intake, recovery period ([2]; 8-day recovery without injection, F(1,29) = 2.093, p > 0.05): no differences between any groups
caloric intake, treatment period ([2]; 13-day i.p. treatment, 11 and 22 μmol⋅kg^−1, chow plus high-fat diet, F(1,29) = 0.783, p > 0.05): no differences between any groups
high-fat diet intake, dose dependence ([2]; 13-day i.p. treatment, F(3,29) = 6.788, p < 0.05, partial eta^2 = 0.45): overall significant dose-dependent decrease in the intake of the high-fat diet
high-fat diet intake, high dose vs low dose ([2]; 22 vs 11 μmol⋅kg^−1 i.p. daily, 13 days): tended to consume less than animals receiving LD CF801 (p = 0.073)
caloric intake at end of treatment period ([2]; once CF801 injections stop): small spike in caloric intake
acyl ghrelin secretion, 100 μM ([3]; 100 μM CF801, 24 h incubation, vs untreated control, n = 6 wells, p < 0.05): Significant decreases in secretion; also recorded: significant reductions in acyl ghrelin secretion
acyl ghrelin secretion, 300 μM ([3]; 300 μM CF801, 24 h incubation, vs untreated control, n = 6 wells, p < 0.05): Significant decreases in secretion; also recorded: significant reductions in acyl ghrelin secretion
acyl ghrelin secretion, 6-h incubation ([3]; 6 h incubation, p > 0.05, preliminary, data not shown, even at highest concentration of 300 μM): No significant effects; also recorded: no effect on acyl ghrelin secretion
